Measured values from US20260315446A1, “ANTIFUNGAL COMPOUNDS AND USES THEREOF” (priority 2023, published 2026).
≈ marks a conversion by molar mass, not a printed value. Read-outs that look alike come from different tables or passages of the source.

Legend:
[1] = system: Aspergillus fumigatus; test: Broth microdilution MIC/MEC (Example 1); type: cell-based; settings: for minimal effective concentration: Aspergillus fumigatus, strain Af293, read-out: MEC against Aspergillus fumigatus (Af293)
Protocol: (§1) MICs/minimum effective concentrations (MECs) were determined for each of the novel analogs against the three major human fungal pathogens, A. fumigatus, C. neoformans, and C. albicans. […] Thus, analogs of FK506 and FK520 can tolerate up to 100-fold reduction in antifungal activity and still be considered for in vivo testing. For C. neoformans, MICs were the most uniform and ranged from 0.2 to 2 μg/mL, which is between 4- and 40-fold reduced for antifungal activity.
To assess the antifungal activity against other human fungal pathogens, JH-FK-05 was selected to test against a panel of pathogenic molds and drug-resistant A. fumigatus strains (Table 4). JH-FK-05 registered MECs as low as 1 μg/mL for some of these highly recalcitrant species, such as Mucor circinelloides, Rhizopus oryzae, and pan azole-resistant A. fumigatus (strain F14946).
(§2) In vitro antifungal activities of FK506, FK520, and analogs were assessed in RPMI 1640 (Sigma-Aldrich) for all strains tested. MICs/minimum effective concentrations (MECs) for each drug were measured using modified Clinical and Laboratory Standards Institute (CLSI) M38-A2 and M27-A3 standard in vitro antifungal susceptibility protocols. Broth microdilution assays for MIC/MEC assessment were performed as described previously (see, Juvvadi P R, et al., 2019, Nat Commun 10:4275). All antifungal assays with C. neoformans were performed at 37° C. Antifungal susceptibility testing for C. albicans was performed in the presence of a uniform 1 μg/mL concentration of fluconazole to sensitize the organism to calcineurin inhibition.

[2] = system: Candida albicans (SC5314); test: Broth microdilution MIC (Example 1); type: cell-based; settings: in the presence of 1 μg/mL fluconazole; for MIC: Candida albicans, SC5314, read-out: MIC against Candida albicans (SC5314)
Protocol: as §1, §2

[3] = system: Cryptococcus neoformans (H99); test: Broth microdilution MIC (Example 1); type: cell-based; settings: for MIC: Cryptococcus neoformans, read-out: MIC against Cryptococcus neoformans (H99)
Protocol: as §1, §2

[4] = system: IL-2 expression in primary murine CD4+ T cells; test: In vitro immunosuppressive activity, IL-2 expression (Example 4); type: cell-based, mouse; settings: Mus musculus, CD4+ T
Protocol: Spleen and lymph nodes were collected from C57BL/6 mice and homogenized through a 40 μm filter. Pan-CD4^+ T cells were enriched using MagniSort Mouse CD4 T cell Kit (eBioscience) according to the manufacturer's protocol. Thereafter, CD4+CD25−CD44lo CD62Lhi naïve T cells were FACS-sorted. The naïve CD4+ T cells were grown in Iscove's Modified Dulbecco's Medium (IMDM) supplemented with glutamine, penicillin, streptomycin, gentamicin, 2-mercaptoethanol, and 10% FBS. Cells were then cultured on anti-hamster IgG coated plates in the presence of hamster anti-CD3 epsilon and anti-CD28 antibodies (BD Biosciences), neutralizing anti-IL-4 antibody (eBioscience), recombinant IL-12 (10 ng/mL), and recombinant IL-2 (50 U/mL) for 72 h. During this period, cells were grown in the presence of 2× serially diluted FK506, FK520, or analog suspended in DMSO for 72 h. During the last 4 h of culture, phorbol 12-myristate 13-acetate (PMA; Sigma), ionomycin (Sigma), and GolgiStop (BD Biosciences) were added to the culture to facilitate detection of intracellular cytokines via flow cytometry.
Live cells were stained with FITC-conjugated anti-CD4 antibody (eBioscience) and Fixable Viability Dye eFluor 506 (eBioscience) on ice, followed by fixation and permeabilization using the Foxp3 Transcription Factor Staining Kit (eBioscience). Intracellular staining was performed at room temperature using PE-conjugated anti-IL-2 antibody (eBioscience), followed by analysis with a BD LSRFortessa X-20 flow cytometer.

[5] = system: Cryptococcus neoformans; test: MIC assay (Example 3); type: cell-based; settings: for antifungal activity at 37° C. versus 30° C.: C. neoformans; for MIC: Cryptococcus neoformans
Protocol: (§3) In vitro antifungal activity was assessed for all fungal strains in RPMI 1640 (Sigma-Aldrich R1383). MICs were measured using Clinical and Laboratory Standards Institute (CLSI) M38-A2 and M27-A3 standard in vitro antifungal susceptibility protocols. C. neoformans and A. fumigatus testing was performed at 37° C. MECs for A. fumigatus were recorded after 48 h of growth. C. albicans testing was performed at 30° C. with a uniform concentration of 2 μg/mL of fluconazole to sensitize the cells to calcineurin inhibition.
(§4) C. neoformans clinical isolate H99 and congenic-derived strain KN99α were used (see, Nielsen K, et al., 2003. Infect Immun 71:4831-4841). KN99α-derived frr1Δ deletion mutants with nourseothricin resistance markers as part of the Madhani deletion collection (NIH funding R01AI100272) were used. C. deneoformans strains used include JEC21 and derived C21F2 (CNB1-1) and C21F3 (frr1-3) strains (see, Odom A, et al., 1997. EMBO J 16:2576-2589; Moore T D, Edman J C. 1993. Mol Cell Biol 13:1962-1970; Fox D S, et al., 2001. Mol Microbiol 39:835-849). C. albicans strain SC5314 is the wild-type strain from which mutants YAG171 (rbp1/rbp1) and YAG237 (CNB1-1/CNB1) were derived (see, Cruz M C, et al., 2001. Antimicrob Agents Chemother 45:3162-3170). A. fumigatus strain akuB^Ku80 and a derived FKBP12 mutant fkbp12A were used during antifungal screening (see, Falloon K, et al., 2015. PLoS One 10:e0137869).

[6] = system: Candida albicans; test: MIC assay (Example 3); type: cell-based; settings: for MIC: Candida albicans, SC5314, read-out: MIC against Candida albicans (SC5314)
Protocol: as §3, §4

[7] = MIC90, 37° C., read-out: MIC against Cryptococcus neoformans (H99)
[8] = MIC80, 30° C. with 2 μg/mL fluconazole

Compound | minimal effective concentration [1] | MIC [2] | MIC ([3]; 37° C.) | antifungal activity at 37° C. versus 30° C. [5] | MIC [5, 7] | MIC ([5]; Table 8, read-out: H99 MIC90) | MIC [6, 8] | IC50 ([4]; Table 12) | further results
CC[C@@H]1/C=C(\C)C[C@H](C)C[C@H](OC)[C@H]2O[C@@](O)(C(=O)C(=O)N3CCCC[C@H]3C(=O)O[C@H](/C(C)=C/[C@@H]3CC[C@@H](O)[C@H](OC)C3)[C@H](C)[C@@H](O)C/C1=N/NC(C)=O)[C@H](C)C[C@@H]2OC [JH-FK-05] | 2 µg/mL | 0.8 µg/mL | 1 µg/mL (≈ 1.18 µM) |  |  |  |  |  | MIC/MEC ([1]; echinocandin-resistant strain EMFR-S678P): 2 µg/mL (≈ 2.36 µM); fold reduction of antifungal activity compared to FK506 ([3]; C. neoformans): 20 fold; broad-spectrum antifungal activity / MIC ranking ([3]; C. neoformans, C. albicans, A. fumigatus): maintained high levels of broad-spectrum antifungal activity across the three species; IC50 ([4]; Table 13): 20 nM
CC[C@@H]1/C=C(\C)C[C@H](C)C[C@H](OC)[C@H]2O[C@@](O)(C(=O)C(=O)N3CCCC[C@H]3C(=O)O[C@H](/C(C)=C/C3CC[C@@H](O)[C@H](OC)C3)[C@H](C)[C@@H](O)C/C1=N/NC(=O)OC)[C@H](C)C[C@@H]2OC (some centres unmarked) [JH-FK-08] |  |  |  | potent antifungal activity against C. neoformans at 37 °C but not at 30 °C | 0.8 µg/mL (≈ 0.926 µM) | 0.8 µg/mL (≈ 0.926 µM) | 0.4 µg/mL (≈ 0.463 µM) |  | MIC/MEC ([5]; strain frr1Δ (KN99α frr1Δ::NAT), MIC90, 37° C.): >25 µg/mL; MIC/MEC [6]: >25 µg/mL
CC[C@@H]1/C=C(\C)C[C@H](C)C[C@H](OC)[C@H]2O[C@@](O)(C(=O)C(=O)N3CCCC[C@H]3C(=O)O[C@H](/C(C)=C/[C@@H]3CC[C@@H](O)[C@H](OC)C3)[C@H](C)[C@@H](O)CC1=O)[C@H](C)C[C@@H]2OC [FK520, reference compound] |  |  |  | potent antifungal activity against C. neoformans at 37 °C but not at 30 °C |  |  |  | 0.48 nM | MIC against Cryptococcus neoformans (H99) ([5]; MIC90, 37° C.): 0.05 µg/mL (≈ 0.0631 µM); H99 MIC90 ([5]; Table 8): 0.05 µg/mL; MIC against Candida albicans (SC5314) [6, 8]: 0.02 µg/mL (≈ 0.0253 µM); MIC against Candida albicans (SC5314) [2]: 0.02 µg/mL; MIC against Cryptococcus neoformans (H99) ([3]; 37° C.): 0.05 µg/mL (≈ 0.0631 µM); antifungal activity (MIC/MEC range) ([3]; range over C. neoformans, C. albicans and A. fumigatus): 0.016 to 0.05 µg/mL
C=CCC1C=C(C)CC(C)CC(OC)C2OC(O)(C(=O)C(=O)N3CCCCC3C(=O)OC(C(C)=CC3CCC(O)C(OC)C3)C(C)C(O)CC1=O)C(C)CC2OC (centres unmarked) [FK506, reference compound] | 0.016 µg/mL | 0.02 µg/mL | 0.05 µg/mL (≈ 0.0622 µM) | potent antifungal activity against C. neoformans at 37 °C but not at 30 °C | 0.05 µg/mL (≈ 0.0622 µM) | 0.05 µg/mL (≈ 0.0622 µM) | 0.02 µg/mL (≈ 0.0249 µM) | 0.11 nM | 
C=CC[C@@H]1/C=C(\C)C[C@H](C)C[C@H](OC)[C@H]2O[C@@](O)(C(=O)C(=O)N3CCCC[C@H]3C(=O)O[C@H](/C(C)=C/[C@@H]3CC[C@@H](O)[C@H](OC)C3)[C@H](C)[C@@H](O)C/C1=N/NC(=O)CC)[C@H](C)C[C@@H]2OC [JH-FK-02] | 2 µg/mL | 1.6 µg/mL | 2 µg/mL (≈ 2.29 µM) |  |  |  |  |  | 
